Holding throughout (assay type): cell-based
One experiment concerns S. aureus (ATCC 25923). Description: antibacterial microdilution assay, S. aureus. Conditions: for MIC: Staphylococcus aureus, ATCC25923, 6 h at 37 °C, read-out: MIC against S. aureus. As for the experimental part: (§1) The isolates were evaluated in vitro for their cytotoxic activities against two human cancer cell lines, namely lung carcinoma (A549) and colon adenocarcinoma (DLD-1), as well as against one healthy cell line (WS1) using the resazurin reduction test. Etoposide was used as a positive control (IC50 ≤ 1.0 µM). […] The antibacterial activity of isolated compounds was also evaluated in vitro against E. coli and S. aureus using the microdilution assay with gentamycin as a positive control (MIC < 0.1 µg/mL).
(§2) Antibacterial activity was evaluated using the microdilution method with some modifications. Briefly,
(§3) exponentially growing bacteria were plated in 96-well flat-bottom microplates (BD Falcon) at a density of
(§4) 5 × 103 Gram-negative E. coli (ATCC 25922) or 40 × 103 Gram-positive S. aureus (ATCC 25923) per
(§5) well in 100 μL nutrient broth (Difco). Increasing concentrations of compounds in DMSO (Sigma-Aldrich)
(§6) were then added (100 μL per well). The final concentration of DMSO in the culture medium was
(§7) maintained at 0.25% (v/v) to avoid solvent toxicity. Fifty microliters of 4% resazurin was added to each
(§8) well and the microplates were incubated for 6 h at 37 °C. Absorbance was measured after 6 h on an
(§9) automated 96-well Varioskan plate reader (Thermo-Labsystems) at wavelengths of 600 nm and 660 nm
(§10) for E. coli and S. aureus respectively.
For orientation: Dilution methods test growth across graded concentrations, often in twofold steps.

For another experiment, the system named is lung carcinoma (A549). Description: cytotoxicity, resazurin reduction test, A549. Conditions: Homo sapiens, 48 h incubation, read-out: IC50 (concentration inhibiting 50% of cell growth), A549. As for the experimental part: as §1
(§11) 23-Oxo-3,4-seco-9βH-lanosta-4(28),7-diene-3,26-dioic acid (9): white amorphous solid; [α]22 −26.9° (c
(§12) Cytotoxic activity bioassay
(§13) Lung carcinoma (A549), colon adenocarcinoma (DLD-1) and normal skin fibroblast (WS1) human cell
(§14) lines were purchased from the American Type Culture Collection (ATCC). All cell lines were cultured in […]
(§15) solvent toxicity. Cytotoxicity was assessed using resazurin reduction test on an automated 96-well
(§16) Fluoroskan Ascent F1TM plate reader (Labsystems) using excitation and emission wavelengths of 530 nm
(§17) and 590 nm, respectively. Fluorescence was proportional to the cellular metabolic activity in each well.
(§18) Survival percentages were defined as the fluorescence in experimental wells compared to that in control
(§19) wells after subtraction of blank values. Cytotoxicity results were expressed as mean ± standard deviation […]
(Alamar Blue is a resazurin reagent that responds to reducing activity.)

Experiment [1] concerns colon adenocarcinoma (DLD-1). Description: cytotoxicity, resazurin reduction test, DLD-1. Conditions: Homo sapiens, 48 h incubation, read-out: IC50 (concentration inhibiting 50% of cell growth), DLD-1. As for the experimental part: as §1, §11, §12, §13, §14, §15, §16, §17, §18, §19
Experiment [2] has as its system normal skin fibroblast (WS1). Description: cytotoxicity, resazurin reduction test, WS1. Conditions: Homo sapiens, WS1 healthy cell line, 48 h incubation, read-out: IC50 (concentration inhibiting 50% of cell growth), WS1. The procedure: as §1, §11, §12, §13, §14, §15, §16, §17, §18, §19
Another experiment deals with E. coli (ATCC 25922). Description: antibacterial microdilution assay, E. coli. Conditions: 6 h at 37 °C. As for the experimental part:
as §1, §2, §3, §4, §5, §6, §7, §8, §9, §10

≈ marks a conversion by molar mass, not a printed value.

The term MIC denotes the least concentration at which growth counts as inhibited. Regarding `C=C(CC(=O)CC(C)C1CCC2(C)C3CCC4C(C)(C)C(O)CCC45CC35CCC12C)C(=O)O` (single isomer, unassigned; (+)) [Compound 4, (+)-rel-3α-hydroxy-23-oxocycloart-25(27)-en-26-oic acid], in the experiment with S. aureus (ATCC 25923), the MIC was 25 µM (≈ 11.8 µg/mL).

Consider `C=C(C)C1CC=C2C(CCC23C(=C)CCC3(C)C(C)CC(=O)C=C(C)C(=O)O)C1(C)CCC(=O)OC` (single isomer, unassigned; (-)) [Compound 1, (−)-rel-abiesonic acid 3-methyl ester], for which, in the experiment with S. aureus (ATCC 25923), the MIC turned out to be 25 µM (≈ 12.4 µg/mL).

With `C=C(C)C1CC=C2C(CCC23C(=C)CCC3(C)C(C)CC(=O)C=C(C)C(=O)O)C1(C)CCC(=O)O` (centres unmarked) [Compound 6, abiesonic acid], in the experiment on lung carcinoma (A549), the IC50 is 22000 nM.

In the case of `COc1cc([C@@H]2c3cc4c(cc3[C@@H](O[C@@H]3O[C@@H]5CO[C@@H](C)O[C@H]5[C@H](O)[C@H]3O)[C@H]3COC(=O)[C@H]23)OCO4)cc(OC)c1O` [Etoposide], the IC50 (in experiment [1]; in experiment [2]; with lung carcinoma (A549)) was no more than 1000 nM each time.

Consider gentamycin, for which, in the experiment with S. aureus (ATCC 25923) (6 h at 37 °C), the “MIC against S. aureus (positive control)” value is recorded as less than 0.1 µg/mL. For the same molecule, in the experiment with E. coli (ATCC 25922), the “MIC against E. coli (positive control)” value is given as less than 0.1 µg/mL.
